Measurements from the supplement of paper PMC10307832.

Experiments:
Assay in all cases: relative viability (nuclei count vs DMSO), 5 days (fraction); higher = more cells survive
AZD5582 + Olaparib = compound: C[C@@H](C(=O)N[C@@H](C1CCCCC1)C(=O)N2CCC[C@H]2C(=O)N[C@@H]3[C@@H](CC4=CC=CC=C34)OCC#CC#CCO[C@@H]5CC6=CC=CC=C6[C@@H]5NC(=O)[C@@H]7CCCN7C(=O)[C@H](C8CCCCC8)NC(=O)[C@H](C)NC)NC [AZD5582] + O=C(c1cc(Cc2n[nH]c(=O)c3ccccc23)ccc1F)N1CCN(C(=O)C2CC2)CC1 [Olaparib] (partner 8 µM)
Procedure, shortened: (§1)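 Relative viability equals treated-well nuclei counts divided by vehicle-well nuclei counts. Counts came from 4× images of lung cancer cell lines grown in 1536-well plates for 5 days after pin-tool dosing on the day after seeding. Dosing used one drug alone or a fixed anchor-drug dose plus five library-drug doses (not always all listed) in √10 steps, and values are medians of duplicate plates.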

[1] = compound: Cn1nnc2c(C(N)=O)ncn2c1=O [Temozolomide] + CS(=O)(=O)N1CCN(Cc2cc3nc(-c4cccc5[nH]ncc45)nc(N4CCOCC4)c3s2)CC1 [Pictilisib] (partner 1 µM)
Procedure, shortened: as §1

AZD5582 + Pemetrexed = compound: C[C@@H](C(=O)N[C@@H](C1CCCCC1)C(=O)N2CCC[C@H]2C(=O)N[C@@H]3[C@@H](CC4=CC=CC=C34)OCC#CC#CCO[C@@H]5CC6=CC=CC=C6[C@@H]5NC(=O)[C@@H]7CCCN7C(=O)[C@H](C8CCCCC8)NC(=O)[C@H](C)NC)NC [AZD5582] + Nc1nc2[nH]cc(CCc3ccc(C(=O)N[C@@H](CCC(=O)O)C(=O)O)cc3)c2c(=O)[nH]1 [Pemetrexed] (partner 0.2 µM)
Procedure, shortened: as §1

[2] = compound: Cn1nnc2c(C(N)=O)ncn2c1=O [Temozolomide] + O=C(CCCCCCC(=O)Nc1ccccc1)NO [Vorinostat] (partner 1 µM)
Procedure, shortened: as §1

Row | Cell Line | relative viability (AZD5582 + Olaparib; first compound 0.001581 µM) | relative viability (AZD5582 + Olaparib; first compound 0.005 µM) | relative viability (AZD5582 + Olaparib; first compound 0.01581 µM) | relative viability (AZD5582 + Olaparib; first compound 0.05 µM) | relative viability ([1]; first compound 0.2 µM) | relative viability ([1]; first compound 0.6325 µM) | relative viability ([1]; first compound 2 µM) | relative viability ([1]; first compound 6.325 µM) | relative viability ([1]; first compound 20 µM) | relative viability (AZD5582 + Pemetrexed; first compound 0.001581 µM) | relative viability (AZD5582 + Pemetrexed; first compound 0.005 µM) | relative viability (AZD5582 + Pemetrexed; first compound 0.01581 µM) | relative viability (AZD5582 + Pemetrexed; first compound 0.05 µM) | relative viability ([2]; first compound 0.6325 µM) | relative viability ([2]; first compound 2 µM) | relative viability ([2]; first compound 6.325 µM) | relative viability ([2]; first compound 20 µM) | relative viability ([2]; first compound 0.2 µM)
1 | EBC-1 | 0.646 | 0.707 | 0.639 | 0.571 | 0.493 | 0.358 | 0.388 | 0.387 | 0.416 | – | – | – | – | – | – | – | – | –
2 | EKVX | 0.777 | 0.894 | 0.725 | 0.854 | 0.23 | 0.38 | 0.391 | 0.379 | 0.273 | 0.382 | 0.39 | 0.344 | 0.375 | 0.745 | 0.691 | 0.794 | 0.395 | –
3 | EMC-BAC-2 | 0.43 | 0.446 | 0.437 | 0.446 | 0.535 | 0.596 | 0.587 | 0.497 | 0.495 | 0.417 | 0.406 | 0.426 | 0.46 | 0.628 | 0.454 | 0.398 | 0.437 | 0.831
4 | EPLC-272H | – | – | 0.955 | 0.0712 | 0.356 | 0.35 | 0.334 | 0.298 | 0.326 | – | – | 0.346 | 0.104 | 0.545 | 0.527 | 0.407 | 0.508 | 0.386
5 | H3255 | 0.489 | 0.598 | 0.553 | 0.481 | – | 0.539 | 0.422 | 0.38 | 0.0897 | 0.492 | 0.563 | 0.512 | 0.573 | 0.793 | 0.77 | 0.535 | 0.23 | –
